Read-outs that look alike come from different tables or passages of the source.
Columns and labels:
5-HT1A = molecular target: T1, 5-HT1A (Homo sapiens, UniProt P08908); assay: PDSP screening affinity 5-HT1A; type: binding; conditions: 5-HT1A affinity
T1 sequence (P08908 1-422): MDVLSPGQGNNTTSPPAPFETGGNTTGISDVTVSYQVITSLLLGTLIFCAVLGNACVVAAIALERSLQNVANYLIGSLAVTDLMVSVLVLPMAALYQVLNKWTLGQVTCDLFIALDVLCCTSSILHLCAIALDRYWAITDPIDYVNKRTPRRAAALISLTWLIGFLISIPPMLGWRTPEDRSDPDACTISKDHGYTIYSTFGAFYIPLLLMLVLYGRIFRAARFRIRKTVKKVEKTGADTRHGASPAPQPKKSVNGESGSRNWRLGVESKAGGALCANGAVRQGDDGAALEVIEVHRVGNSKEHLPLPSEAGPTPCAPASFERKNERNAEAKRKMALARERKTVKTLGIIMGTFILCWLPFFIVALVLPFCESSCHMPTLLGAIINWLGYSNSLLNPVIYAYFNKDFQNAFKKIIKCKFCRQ

Male C57BL/6J mice = assay: Mouse head twitch response; conditions: for max counts: HTR counts; for max counts / activity in the HTR assay (active / inactive) / magnitude of peak effect × vehicle / maximally effective dose: SC; for ED50: Mus musculus, sc, read-out: ED50 mg/kg (95% CI), mouse head twitch; for activity in the HTR assay (active / inactive): doses up to 30 mg/kg; for magnitude of peak effect × vehicle / maximally effective dose: mouse head twitch
human 5-HT2C receptor [1] = molecular target: T2, human 5-HT2C receptor (Homo sapiens, UniProt P28335); assay: h5-HT2C affinity, antagonist radioligand [3H]mesulergine; type: binding
T2 sequence (P28335 33-458): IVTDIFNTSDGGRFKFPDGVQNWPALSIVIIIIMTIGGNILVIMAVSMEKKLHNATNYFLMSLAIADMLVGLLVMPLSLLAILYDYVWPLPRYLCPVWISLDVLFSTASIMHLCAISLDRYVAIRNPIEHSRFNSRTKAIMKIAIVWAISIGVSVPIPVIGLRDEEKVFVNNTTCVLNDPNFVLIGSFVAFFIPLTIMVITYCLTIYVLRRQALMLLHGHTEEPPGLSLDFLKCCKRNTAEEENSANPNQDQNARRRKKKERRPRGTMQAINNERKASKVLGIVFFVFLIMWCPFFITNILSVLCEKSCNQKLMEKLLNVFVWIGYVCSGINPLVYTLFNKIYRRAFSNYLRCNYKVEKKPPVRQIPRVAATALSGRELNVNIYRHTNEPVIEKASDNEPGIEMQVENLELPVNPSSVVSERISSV

5-HT2A receptor [2] = molecular target: T3, 5-HT2A receptor (Homo sapiens, UniProt P28223); assay: h5-HT2A affinity, agonist radioligand [125I]DOI; type: binding
T3 sequence (P28223 whole entry): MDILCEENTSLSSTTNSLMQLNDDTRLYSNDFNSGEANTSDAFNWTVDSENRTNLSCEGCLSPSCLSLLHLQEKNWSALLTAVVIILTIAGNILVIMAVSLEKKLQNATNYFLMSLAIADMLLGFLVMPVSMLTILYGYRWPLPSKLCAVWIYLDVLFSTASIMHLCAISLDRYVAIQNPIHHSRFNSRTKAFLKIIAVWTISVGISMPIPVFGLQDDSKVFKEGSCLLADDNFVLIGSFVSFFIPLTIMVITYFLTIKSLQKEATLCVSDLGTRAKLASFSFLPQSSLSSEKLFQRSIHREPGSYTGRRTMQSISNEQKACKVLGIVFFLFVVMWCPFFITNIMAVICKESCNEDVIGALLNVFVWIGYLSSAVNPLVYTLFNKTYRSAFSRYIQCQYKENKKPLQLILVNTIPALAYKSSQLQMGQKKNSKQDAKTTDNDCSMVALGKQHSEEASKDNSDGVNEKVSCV

h5-HT2B = h5-HT2B (Homo sapiens, UniProt P41595); assay: Ca2+ mobilization assay; type: cell-based; conditions: for Emax: HEK293, read-out: h5-HT2B Emax
Chain of h5-HT2B (P41595 whole entry): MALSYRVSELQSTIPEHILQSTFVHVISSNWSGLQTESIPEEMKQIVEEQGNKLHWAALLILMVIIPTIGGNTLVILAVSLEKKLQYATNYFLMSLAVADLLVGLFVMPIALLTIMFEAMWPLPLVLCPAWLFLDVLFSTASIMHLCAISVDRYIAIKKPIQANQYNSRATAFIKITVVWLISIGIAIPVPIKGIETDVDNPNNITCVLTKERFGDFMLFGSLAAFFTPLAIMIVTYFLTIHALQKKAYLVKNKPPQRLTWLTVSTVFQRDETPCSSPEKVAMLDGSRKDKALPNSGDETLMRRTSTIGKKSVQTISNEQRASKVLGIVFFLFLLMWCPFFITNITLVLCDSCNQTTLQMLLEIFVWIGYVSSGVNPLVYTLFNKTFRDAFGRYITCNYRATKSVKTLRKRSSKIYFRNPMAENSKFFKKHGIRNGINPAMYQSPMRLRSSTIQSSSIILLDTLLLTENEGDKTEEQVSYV

r5-HT2C = molecular target: T4, r5-HT2C (Rattus norvegicus, UniProt P08909); assay: Ca2+ mobilization assay; type: cell-based; conditions: for Emax: read-out: r5-HT2C Emax
T4 sequence (P08909 33-460): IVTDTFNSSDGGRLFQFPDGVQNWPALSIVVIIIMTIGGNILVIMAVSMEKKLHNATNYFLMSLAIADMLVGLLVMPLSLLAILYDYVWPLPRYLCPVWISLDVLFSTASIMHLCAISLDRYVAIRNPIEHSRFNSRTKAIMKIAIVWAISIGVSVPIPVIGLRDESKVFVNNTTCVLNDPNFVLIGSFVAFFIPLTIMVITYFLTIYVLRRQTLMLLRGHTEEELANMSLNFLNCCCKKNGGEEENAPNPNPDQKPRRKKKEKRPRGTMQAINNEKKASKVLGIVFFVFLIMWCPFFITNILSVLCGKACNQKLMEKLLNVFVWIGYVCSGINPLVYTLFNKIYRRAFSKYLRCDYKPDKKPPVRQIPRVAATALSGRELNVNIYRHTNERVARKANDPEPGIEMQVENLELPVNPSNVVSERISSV

h5-HT2A = h5-HT2A (Homo sapiens, UniProt P28223); assay: Ca2+ mobilization assay; type: cell-based; conditions: for Emax: HEK293, read-out: h5-HT2A Emax, percentage of the maximum response to 5-HT
Chain of h5-HT2A (P28223 whole entry): as the sequence (P28223 whole entry) above

5-HT1B = 5-HT1B (Homo sapiens, UniProt P28222); assay: PDSP screening affinity 5-HT1B; type: binding
Chain of 5-HT1B (P28222 whole entry): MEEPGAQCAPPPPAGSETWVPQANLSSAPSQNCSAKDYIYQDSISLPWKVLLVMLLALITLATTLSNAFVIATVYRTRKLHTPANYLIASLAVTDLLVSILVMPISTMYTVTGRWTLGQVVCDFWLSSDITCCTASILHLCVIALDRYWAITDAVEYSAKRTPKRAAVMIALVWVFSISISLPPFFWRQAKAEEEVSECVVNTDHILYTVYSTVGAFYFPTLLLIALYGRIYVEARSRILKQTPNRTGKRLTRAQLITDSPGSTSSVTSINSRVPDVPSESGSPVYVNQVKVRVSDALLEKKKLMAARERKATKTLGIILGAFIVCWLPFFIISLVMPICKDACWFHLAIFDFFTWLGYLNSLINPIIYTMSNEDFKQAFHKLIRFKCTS

5-HT2B = 5-HT2B (Homo sapiens, UniProt P41595); assay: PDSP screening affinity 5-HT2B; type: binding
Chain of 5-HT2B (P41595 whole entry): as the sequence (P41595 whole entry) above

5-HT6 = 5-HT6 (Homo sapiens, UniProt P50406); assay: PDSP screening affinity 5-HT6; type: binding
Chain of 5-HT6 (P50406 whole entry): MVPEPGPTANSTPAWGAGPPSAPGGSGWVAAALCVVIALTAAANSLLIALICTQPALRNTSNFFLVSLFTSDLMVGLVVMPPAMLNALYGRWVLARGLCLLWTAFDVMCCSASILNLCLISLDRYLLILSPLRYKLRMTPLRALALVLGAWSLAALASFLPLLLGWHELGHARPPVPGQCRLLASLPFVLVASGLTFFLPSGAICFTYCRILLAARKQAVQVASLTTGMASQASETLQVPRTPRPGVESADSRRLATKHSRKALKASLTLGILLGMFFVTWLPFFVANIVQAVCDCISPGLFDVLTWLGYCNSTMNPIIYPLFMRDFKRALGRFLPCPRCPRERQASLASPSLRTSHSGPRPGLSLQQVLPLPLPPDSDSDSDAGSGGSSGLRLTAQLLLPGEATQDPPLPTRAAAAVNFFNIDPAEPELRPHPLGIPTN

h5-HT2C = molecular target: T5, h5-HT2C (Homo sapiens, UniProt P28335); assay: Ca2+ mobilization assay; type: cell-based; conditions: for Emax: HEK293, read-out: h5HT2C Emax; for EC50: h5HT2C EC50, Ca2+ mobilization
T5 sequence (P28335 33-458): T2 sequence (P28335 33-458)

5-HT3 = molecular target: T6, 5-HT3 (Homo sapiens, UniProt P46098); assay: PDSP screening affinity 5-HT3; type: binding
T6 sequence (P46098 24-478): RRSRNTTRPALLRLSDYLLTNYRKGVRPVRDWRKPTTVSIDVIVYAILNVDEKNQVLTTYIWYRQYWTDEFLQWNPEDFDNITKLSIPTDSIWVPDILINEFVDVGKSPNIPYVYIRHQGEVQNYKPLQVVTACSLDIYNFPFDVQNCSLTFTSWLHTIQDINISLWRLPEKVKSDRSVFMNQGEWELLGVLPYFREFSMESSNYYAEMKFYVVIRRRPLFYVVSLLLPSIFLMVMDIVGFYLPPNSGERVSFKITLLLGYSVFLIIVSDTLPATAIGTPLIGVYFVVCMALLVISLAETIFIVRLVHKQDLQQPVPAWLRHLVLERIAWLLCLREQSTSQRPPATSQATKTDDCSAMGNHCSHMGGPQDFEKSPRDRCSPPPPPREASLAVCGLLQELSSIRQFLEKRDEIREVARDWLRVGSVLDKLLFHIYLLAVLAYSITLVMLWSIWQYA

5-ht1e = 5-ht1e (Homo sapiens, UniProt P28566); assay: PDSP screening affinity 5-ht1e; type: binding
Chain of 5-ht1e (P28566 whole entry): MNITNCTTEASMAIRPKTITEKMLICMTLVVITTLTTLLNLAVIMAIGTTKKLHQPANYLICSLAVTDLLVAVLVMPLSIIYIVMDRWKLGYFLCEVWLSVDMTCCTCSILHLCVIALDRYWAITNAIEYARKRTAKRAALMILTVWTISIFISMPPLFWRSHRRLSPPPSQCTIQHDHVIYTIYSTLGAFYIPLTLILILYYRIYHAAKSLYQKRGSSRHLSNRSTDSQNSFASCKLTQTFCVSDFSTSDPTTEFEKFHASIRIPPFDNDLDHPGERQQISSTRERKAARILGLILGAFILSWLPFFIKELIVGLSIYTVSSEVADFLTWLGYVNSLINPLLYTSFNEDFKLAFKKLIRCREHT

5-ht5a = 5-ht5a (Homo sapiens, UniProt P47898); assay: PDSP screening affinity 5-ht5a; type: binding; conditions: 5-ht5a affinity
Chain of 5-ht5a (P47898 whole entry): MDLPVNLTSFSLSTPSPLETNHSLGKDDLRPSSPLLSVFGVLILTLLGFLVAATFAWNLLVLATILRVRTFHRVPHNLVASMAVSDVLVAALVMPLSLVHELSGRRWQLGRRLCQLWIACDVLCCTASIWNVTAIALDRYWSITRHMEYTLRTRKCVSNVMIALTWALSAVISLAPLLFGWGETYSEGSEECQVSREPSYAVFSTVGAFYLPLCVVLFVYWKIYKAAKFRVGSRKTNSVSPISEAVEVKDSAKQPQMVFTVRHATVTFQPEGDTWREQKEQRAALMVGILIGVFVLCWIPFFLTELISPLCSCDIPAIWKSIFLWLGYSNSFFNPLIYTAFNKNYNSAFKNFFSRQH

human 5-HT2C receptor [3] = molecular target: T2, human 5-HT2C receptor; assay: h5-HT2C affinity, agonist radioligand [125I]DOI; type: binding
r5-HT2A = r5-HT2A (Rattus norvegicus, UniProt P14842); assay: Ca2+ mobilization assay; type: cell-based; conditions: for EC50: r5-HT2A EC50, Ca2+ mobilization; for Emax: read-out: r5-HT2A Emax, percentage of the maximum response to 5-HT
Chain of r5-HT2A (P14842 whole entry): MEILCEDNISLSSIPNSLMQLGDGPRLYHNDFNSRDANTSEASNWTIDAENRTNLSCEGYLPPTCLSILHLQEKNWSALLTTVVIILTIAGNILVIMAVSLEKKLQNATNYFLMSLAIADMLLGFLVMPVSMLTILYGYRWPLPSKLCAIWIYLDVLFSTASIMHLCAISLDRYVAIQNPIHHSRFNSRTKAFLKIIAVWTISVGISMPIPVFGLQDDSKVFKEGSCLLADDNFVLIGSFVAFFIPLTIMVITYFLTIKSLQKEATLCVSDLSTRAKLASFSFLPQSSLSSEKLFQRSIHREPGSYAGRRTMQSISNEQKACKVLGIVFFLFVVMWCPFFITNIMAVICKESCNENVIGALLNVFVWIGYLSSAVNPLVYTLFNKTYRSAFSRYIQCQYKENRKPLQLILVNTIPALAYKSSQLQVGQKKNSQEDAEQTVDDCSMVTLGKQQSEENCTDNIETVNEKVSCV

5-HT1D = 5-HT1D (Homo sapiens, UniProt P28221); assay: PDSP screening affinity 5-HT1D; type: binding
Chain of 5-HT1D (P28221 whole entry): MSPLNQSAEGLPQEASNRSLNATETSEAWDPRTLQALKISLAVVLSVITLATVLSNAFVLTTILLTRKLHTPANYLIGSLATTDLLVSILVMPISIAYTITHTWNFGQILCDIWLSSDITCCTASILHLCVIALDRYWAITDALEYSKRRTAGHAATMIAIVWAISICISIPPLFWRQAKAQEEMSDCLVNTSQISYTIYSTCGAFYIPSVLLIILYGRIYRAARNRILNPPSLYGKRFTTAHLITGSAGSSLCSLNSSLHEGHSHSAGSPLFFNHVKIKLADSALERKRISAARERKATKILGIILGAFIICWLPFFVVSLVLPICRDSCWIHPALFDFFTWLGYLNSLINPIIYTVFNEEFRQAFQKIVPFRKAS

5-HT2A receptor [4] = molecular target: T3, 5-HT2A receptor; assay: h5-HT2A affinity, antagonist radioligand [3H]ketanserin; type: binding
5-HT7 = 5-HT7 (Homo sapiens, UniProt P34969); assay: PDSP screening affinity 5-HT7; type: binding
Chain of 5-HT7 (P34969 whole entry): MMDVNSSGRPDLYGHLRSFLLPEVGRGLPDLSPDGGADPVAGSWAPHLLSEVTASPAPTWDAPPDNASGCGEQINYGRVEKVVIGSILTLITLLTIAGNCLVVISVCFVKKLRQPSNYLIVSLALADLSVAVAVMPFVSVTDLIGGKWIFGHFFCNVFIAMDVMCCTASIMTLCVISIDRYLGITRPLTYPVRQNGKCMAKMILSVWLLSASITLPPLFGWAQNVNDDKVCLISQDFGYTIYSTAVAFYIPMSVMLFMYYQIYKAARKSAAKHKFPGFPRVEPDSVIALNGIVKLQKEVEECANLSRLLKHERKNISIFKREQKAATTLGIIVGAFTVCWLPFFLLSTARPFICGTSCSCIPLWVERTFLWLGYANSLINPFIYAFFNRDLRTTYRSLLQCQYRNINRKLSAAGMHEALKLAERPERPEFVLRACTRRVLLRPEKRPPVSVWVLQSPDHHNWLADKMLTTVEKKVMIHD

[5] = h5-HT2B EC50, Ca2+ mobilization
[6] = r5-HT2C EC50, Ca2+ mobilization

| SMILES | Ki (5-HT1A) [nM] | max counts (Male C57BL/6J mice) | ED50 (Male C57BL/6J mice) [mg/kg] | magnitude of peak effect × vehicle (Male C57BL/6J mice) [× vehicle] | maximally effective dose (Male C57BL/6J mice) [mg/kg] | Ki (human 5-HT2C receptor [1]) [nM] | Ki (5-HT2A receptor [2]) [nM] | Emax (h5-HT2B) [%] | EC50 (h5-HT2B; [5]) [nM] | EC50 (r5-HT2C; [6]) [nM] | Emax (r5-HT2C) [%] | EC50 (h5-HT2A) [nM] | Emax (h5-HT2A) [%] | Ki (5-HT2B; 5-HT2B affinity) [nM] | Ki (5-HT6; 5-HT6 affinity) [nM] | Emax (h5-HT2C) [%] | EC50 (h5-HT2C) [nM] | Ki (5-HT3) [nM] | Ki (5-ht1e) [nM] | Ki (5-ht5a) [nM] | further results |
| --- | --- | --- | --- | --- | --- | --- | --- | --- | --- | --- | --- | --- | --- | --- | --- | --- | --- | --- | --- | --- | --- |
| COc1cccc(CNCCc2cc(OC)c(I)cc2OC)c1 [Compound 4a, N-(3-Methoxybenzyl)-2-(4-iodo-2,5-dimethoxyphenyl)ethan-1-amine] | 925 | 11.4 | 4.34 | 5.7 | 30 | 4.17 | 0.269 | ≤ 15 | 38 | 133 | 91 ± 3 | 28 | 71.6 ± 0.9 | 4.6 | 67 | 41 ± 6 | 33.8 | > 10000 | 1710 | 57 | activity in the HTR assay (active / inactive) (Male C57BL/6J mice): active; Ki (5-HT1B; 5-HT1B affinity): 3230 nM; Ki (human 5-HT2C receptor [3]): 0.126 nM; EC50 (r5-HT2A): 27 nM; Emax (r5-HT2A): 51.7 ± 0.9%; Ki (5-HT1D): 439 nM; Ki (5-HT2A receptor [4]): 1.55 nM; Ki (5-HT7; 5-HT7 affinity): 583 nM |
| COc1ccc2[nH]cc(CCNCc3cccc(I)c3)c2c1 [Compound 5i, N-(3-Iodobenzyl)-2-(5-methoxy-1H-indol-3-yl)ethan-1-amine] | 122 | 20.2 | 7.77 | 3.4 | 30 | 6.46 | 0.62 | 31 ± 2 | 43 | 313 | 110 ± 3 | 16 | 79 ± 1.1 | 0.76 | 27 | 94 ± 5 | 445 | > 10000 | > 10000 | 1540 | h5-HT2A Ki (5-HT2A receptor [2]; [125I]DOI): subnanomolar affinity; EC50 (r5-HT2C; r5-HT2C pEC50 ± SEM, Ca2+ mobilization): 309 nM; 5-HT1B pKi ± SEM (5-HT1B): 5.53 ± 0.05; Ki (5-HT1B; read-out: 5-HT1B affinity): 2960 nM; Ki (5-HT6; 5-HT6 pKi ± SEM): 26.3 nM; Ki (human 5-HT2C receptor [3]): 1.05 nM; EC50 (r5-HT2A): 120 nM; Emax (r5-HT2A): 73.4 ± 1.4%; Ki (5-HT1D): 199 nM; Ki (5-HT2A receptor [4]): 3.47 nM; Ki (5-HT7; 5-HT7 pKi ± SEM): 21.9 nM |
| COc1cc(CCNCc2ccccc2Br)c(OC)cc1I [Compound 4c, N-(2-Bromobenzyl)-2-(4-iodo-2,5-dimethoxyphenyl)ethan-1-amine] | 1160 | 23.2 | 2.31 | 3.0 | 10 | 8.71 | 0.38 | 83 ± 3 | 134 | 105 | 104 ± 1 | 42 | 88 ± 1.5 | 20 | 257 | 87 ± 5 | 57.6 | > 10000 | > 10000 | 2290 | activity in the HTR assay (active / inactive) (Male C57BL/6J mice): active; EC50 (h5-HT2B; h5-HT2B pEC50 ± SEM, Ca2+ mobilization, NA = not active, Emax ≤ 15%): 151 nM; Ki (5-HT1B; 5-HT1B affinity): > 10000 nM; Ki (human 5-HT2C receptor [3]): 1.02 nM; EC50 (r5-HT2A): 36 nM; Emax (r5-HT2A): 65.6 ± 1.6%; Ki (5-HT1D): 423 nM; Ki (5-HT2A receptor [4]): 2.34 nM; Ki (5-HT7; 5-HT7 affinity): 2550 nM |
| COc1ccc2[nH]cc(CCNCc3cccc(Cl)c3)c2c1 [Compound 5h, N-(3-Chlorobenzyl)-2-(5-methoxy-1H-indol-3-yl)ethan-1-amine] | 195 | 10.6 | 4.43 | 8.0 | 30 | 28.2 | 1.05 | ≤ 15 | 50 | 286 | 105 ± 2 | 14 | 81.2 ± 1.3 | 6.6 | 50 | 85 ± 6 | 316 | > 10000 | > 10000 | 2310 | Ki (5-HT1B; 5-HT1B affinity): 4390 nM; Ki (5-HT2B; 5-HT2B pKi ± SEM): 6.92 nM; Ki (human 5-HT2C receptor [3]): 4.27 nM; EC50 (r5-HT2A): 83 nM; Emax (r5-HT2A): 70.1 ± 1%; Ki (5-HT1D): 282 nM; Ki (5-HT2A receptor [4]): 5.25 nM; Ki (5-HT7; 5-HT7 affinity): 281 nM |
